From paper PMC11091117, “A fluorescently-tagged tick kinin neuropeptide triggers peristalsis and labels tick midgut muscles” (Scientific Reports, 2024)

Tested on: tick kinin receptor (CHO-K1 BMLK3 cells)
Assay: Fluorescence microscopy validation of labeled peptide specificity on live BMLK3 cells
Assay type: binding, Rhipicephalus microplus
Procedure: BMLK3 and vector-only cells were cultured in selective media (F-12K medium containing 10% fetal bovine serum and 800 µg/mL-1 of G418 sulfate), cells were seeded in […] (CELLSTAR®, Greiner Bio-One®, Monroe, NC USA) at 20,000 cells per well and were incubated overnight. The next assay, the cell culture medium was removed, and cells were rinsed twice with 200 µl DPBS, and 180 µl of HBSS buffer was added into each well. The peptide stock solutions were prepared in 1% DMSO in HBSS at 100 µM. TMR-RK8 (20 µl) was added into each well and incubated with the cells for 5 min at room temperature. The medium was then removed with a pipette and the cells were rinsed twice with 200 µl HBSS, and DAPI (VECTASHIELD® H-1200, Vector Laboratories) was added (20 µl of 0.15 µg/ml) for visualizing the cell nuclei. Cells were rinsed twice with 200 µl of HBSS, and finally 180 µl HBSS per well was added.
The cells were immediately imaged under a Zeiss Axio Observer® inverted fluorescence microscope. The exposure time for the Bodipy-Tetramethylrhodamine-X (BPTmX) fluorescence channel was the same for BMLK3 cells and V/O cells. DAPI imaging was done subsequently using the same focal height as the BPTmx channel.

Substance: TMR-C-GTGEDQAFSPWGamide [TMR-RK8]
- labeling of BMLK3 cells, Fig. S1 (in words) (1 µM TMR-RK8, 5 min at room temperature, HBSS, Zeiss Axio Observer, BPTmX channel): only observed in the BLMK3 cells
- receptor visualization across multiple BMLK3 cells (in words) (Figs. S1 and S2, BMLK3 cells): consistently visualized with TMR-RK8 across multiple BMLK3 cells
